Drawing on ChEMBL document CHEMBL2073904, “Effect of levothyroxine administration on intestinal P-glycoprotein expression: consequences for drug disposition” (Clin Pharmacol Ther, 2002), this text covers Activity for one compound.

The target in data set [1] is T1, ATP-dependent translocase ABCB1 (Homo sapiens, UniProt P08183). As to the kind of experiment: TP_TRANSPORTER: RT-PCR in vivo, duodenal. Format: functional, organism-based, Duodenum.
The target of data set [2] is T1, ATP-dependent translocase ABCB1. As to the kind of experiment: TP_TRANSPORTER: immunohistochemistry in vivo, duodenum. The data set is classed as functional, organism-based.

T1 sequence (P08183 whole entry): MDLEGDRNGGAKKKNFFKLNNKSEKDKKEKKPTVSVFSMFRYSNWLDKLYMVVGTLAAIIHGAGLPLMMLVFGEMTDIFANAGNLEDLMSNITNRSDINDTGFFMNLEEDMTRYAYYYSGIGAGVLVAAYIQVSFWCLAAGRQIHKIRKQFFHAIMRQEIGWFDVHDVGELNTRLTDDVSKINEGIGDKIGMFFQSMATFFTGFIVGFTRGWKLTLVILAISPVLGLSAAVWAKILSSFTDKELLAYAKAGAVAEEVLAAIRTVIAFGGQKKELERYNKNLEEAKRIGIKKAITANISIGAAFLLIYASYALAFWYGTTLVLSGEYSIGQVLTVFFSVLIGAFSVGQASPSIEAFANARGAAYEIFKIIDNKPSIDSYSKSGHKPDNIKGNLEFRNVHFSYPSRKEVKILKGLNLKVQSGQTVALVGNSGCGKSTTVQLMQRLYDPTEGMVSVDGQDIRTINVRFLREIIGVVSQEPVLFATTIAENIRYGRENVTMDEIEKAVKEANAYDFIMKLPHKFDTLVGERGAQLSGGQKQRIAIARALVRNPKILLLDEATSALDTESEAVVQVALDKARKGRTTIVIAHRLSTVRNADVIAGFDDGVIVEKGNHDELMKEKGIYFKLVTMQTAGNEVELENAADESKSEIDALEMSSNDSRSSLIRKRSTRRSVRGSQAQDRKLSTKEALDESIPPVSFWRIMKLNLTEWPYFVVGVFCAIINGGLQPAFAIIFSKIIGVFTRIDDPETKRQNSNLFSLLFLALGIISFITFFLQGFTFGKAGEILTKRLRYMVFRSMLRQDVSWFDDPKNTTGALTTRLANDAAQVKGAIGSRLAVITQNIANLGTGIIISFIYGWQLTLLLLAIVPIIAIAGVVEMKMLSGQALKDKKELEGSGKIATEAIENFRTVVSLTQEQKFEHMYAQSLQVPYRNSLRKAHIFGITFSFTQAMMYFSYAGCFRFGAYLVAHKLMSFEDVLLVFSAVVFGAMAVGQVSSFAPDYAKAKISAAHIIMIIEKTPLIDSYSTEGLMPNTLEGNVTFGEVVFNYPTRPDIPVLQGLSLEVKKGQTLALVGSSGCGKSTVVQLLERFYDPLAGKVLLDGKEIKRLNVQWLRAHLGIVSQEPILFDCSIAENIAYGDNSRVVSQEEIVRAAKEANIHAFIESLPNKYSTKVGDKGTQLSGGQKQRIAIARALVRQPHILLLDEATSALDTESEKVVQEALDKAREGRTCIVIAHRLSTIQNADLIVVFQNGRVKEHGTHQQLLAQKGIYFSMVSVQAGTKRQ

Regarding `N[C@@H](Cc1cc(I)c(Oc2cc(I)c(O)c(I)c2)c(I)c1)C(=O)O` [LEVOTHYROXINE], the Activity result in data set [1] and in data set [2] was “inducer [+]” in each case.
